Measured values taken from publication PMC9143591, “The Chemical Constituents of Diaphragma Juglandis Fructus and Their Inhibitory Effect on α-Glucosidase Activity” (Molecules, 2022).

Target: α-glucosidase (Saccharomyces cerevisiae, UniProt P53341)
Experiment: α-Glucosidase inhibitory assay
Assay type: biochemical
Details: in vitro
Procedure: Alpha-glucosidase is an enzyme that hydrolyzes the carbohydrates to monosaccharides in the final step of carbohydrate digestion. […] In order to search for bioactive substances to treat type 2 diabetes using Diaphragma juglandis Fructus, all isolated constituents (1–37) were assessed for antidiabetic activity using an in vitro α-glycosidase inhibition assay.
The α-glucosidase was obtained from Sigma-Aldrich (Shanghai) Trading Co., Ltd (Shanghai, China). p-nitrophenyl-α-D-glucopyranoside was obtained from Macklin Co., Ltd. (Lot# C12592180, Shanghai, China).
The α-glucosidase inhibition assay was performed according to a previous report with a slight difference: the concentration of α-glucosidase was diluted to 0.15 unit/mL. The volume of α-glucosidase added to the 96-well plate was 10 μL.

Sequence of α-glucosidase (P53341 whole entry): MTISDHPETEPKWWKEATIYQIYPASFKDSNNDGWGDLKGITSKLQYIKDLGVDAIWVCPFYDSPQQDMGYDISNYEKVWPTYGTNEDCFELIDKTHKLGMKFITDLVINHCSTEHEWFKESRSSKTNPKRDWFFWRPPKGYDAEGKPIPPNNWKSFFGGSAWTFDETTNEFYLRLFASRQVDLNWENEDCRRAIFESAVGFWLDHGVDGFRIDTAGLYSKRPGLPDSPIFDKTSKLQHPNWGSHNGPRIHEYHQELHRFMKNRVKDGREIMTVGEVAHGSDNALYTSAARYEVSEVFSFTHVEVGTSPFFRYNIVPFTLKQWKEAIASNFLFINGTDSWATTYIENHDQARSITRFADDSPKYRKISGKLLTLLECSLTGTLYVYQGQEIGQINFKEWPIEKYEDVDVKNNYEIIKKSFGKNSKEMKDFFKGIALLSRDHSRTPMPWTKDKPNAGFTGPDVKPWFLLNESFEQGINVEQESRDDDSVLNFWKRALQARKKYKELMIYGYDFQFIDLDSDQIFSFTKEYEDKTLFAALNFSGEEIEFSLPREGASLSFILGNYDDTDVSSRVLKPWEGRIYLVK

Row | Structure (SMILES) | α-glucosidase inhibition activity (in words)
1 | O=C1c2c(O)cc(O)cc2OC(c2ccc(O)c(O)c2)C1O (stereo not shown) [Compound 13, taxifolin] | quite potent
2 | Oc1cc(O)c2c(c1)O[C@@H](c1ccc(O)c(O)c1)[C@H](O)C2 [Compound 16, (+)-catechin] | quite potent
3 | O=c1c(O)c(-c2ccc(O)c(O)c2)oc2cc(O)cc(O)c12 [Compound 21, quercetin] | quite potent
4 | O=c1cc(-c2ccc(O)c(O)c2)oc2cc(O)cc(O)c12 [Compound 28, luteolin] | quite potent
